Measurements reported in ChEMBL document CHEMBL1201862, “PubChem BioAssay data set” (2004).
Active and inactive are the calls of the source.

Assays:
[1] = test system: HT-1080; assay: HT1080 cell viability loss – fluorescence readout (AID 620); format: functional, cell-based; details: Homo sapiens
[2] = molecular target: T1, Sentrin-specific protease 8 (Homo sapiens, UniProt Q96LD8); format: functional;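 also: luminescence read-out of SENP8 inhibition, dose-response confirmation following an ultra-high-throughput screen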
T1 sequence (Q96LD8 whole entry): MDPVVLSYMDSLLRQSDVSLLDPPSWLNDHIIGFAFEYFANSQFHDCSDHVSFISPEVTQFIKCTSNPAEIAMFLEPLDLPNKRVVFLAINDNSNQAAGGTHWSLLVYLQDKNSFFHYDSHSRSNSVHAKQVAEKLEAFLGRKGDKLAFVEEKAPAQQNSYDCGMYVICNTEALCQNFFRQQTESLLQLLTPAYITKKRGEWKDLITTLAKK

[3] = molecular target: Mast/stem cell growth factor receptor Kit (Homo sapiens, UniProt P10721); format: functional;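 also: KIT entry within a kinase panel assay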
Sequence of Mast/stem cell growth factor receptor Kit (P10721 whole entry): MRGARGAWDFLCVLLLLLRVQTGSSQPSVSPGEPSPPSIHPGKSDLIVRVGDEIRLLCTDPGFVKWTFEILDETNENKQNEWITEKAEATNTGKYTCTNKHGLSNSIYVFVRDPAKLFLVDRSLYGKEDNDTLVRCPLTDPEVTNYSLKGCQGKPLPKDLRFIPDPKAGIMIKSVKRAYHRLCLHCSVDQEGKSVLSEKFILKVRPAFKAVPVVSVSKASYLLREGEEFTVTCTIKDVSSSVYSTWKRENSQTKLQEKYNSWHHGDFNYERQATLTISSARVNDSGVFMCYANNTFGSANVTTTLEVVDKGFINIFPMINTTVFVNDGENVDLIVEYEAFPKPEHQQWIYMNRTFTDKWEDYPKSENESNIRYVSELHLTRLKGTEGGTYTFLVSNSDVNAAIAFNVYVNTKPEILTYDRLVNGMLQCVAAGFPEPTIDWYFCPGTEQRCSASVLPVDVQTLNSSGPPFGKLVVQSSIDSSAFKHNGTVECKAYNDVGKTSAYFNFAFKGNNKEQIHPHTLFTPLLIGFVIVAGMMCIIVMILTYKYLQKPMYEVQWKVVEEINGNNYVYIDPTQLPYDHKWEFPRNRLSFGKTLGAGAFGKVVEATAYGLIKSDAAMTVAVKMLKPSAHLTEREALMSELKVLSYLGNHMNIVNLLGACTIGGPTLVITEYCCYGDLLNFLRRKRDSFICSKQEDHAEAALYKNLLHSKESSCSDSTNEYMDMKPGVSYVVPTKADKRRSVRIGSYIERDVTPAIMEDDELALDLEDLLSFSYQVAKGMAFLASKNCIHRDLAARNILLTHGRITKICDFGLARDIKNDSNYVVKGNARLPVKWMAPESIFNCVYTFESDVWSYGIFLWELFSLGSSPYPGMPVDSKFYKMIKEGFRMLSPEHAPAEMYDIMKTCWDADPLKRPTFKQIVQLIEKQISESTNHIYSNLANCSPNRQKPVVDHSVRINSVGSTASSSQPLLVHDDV

[4] = molecular target: High affinity nerve growth factor receptor (Homo sapiens, UniProt P04629); format: functional;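 also: NTRK1 tested as one member of a kinome-wide profiling panel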
[5] = molecular target: Tyrosine-protein kinase Fer (Homo sapiens, UniProt P16591); format: functional;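 also: FER tested as one member of a kinome panel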
Sequence of Tyrosine-protein kinase Fer (P16591 whole entry): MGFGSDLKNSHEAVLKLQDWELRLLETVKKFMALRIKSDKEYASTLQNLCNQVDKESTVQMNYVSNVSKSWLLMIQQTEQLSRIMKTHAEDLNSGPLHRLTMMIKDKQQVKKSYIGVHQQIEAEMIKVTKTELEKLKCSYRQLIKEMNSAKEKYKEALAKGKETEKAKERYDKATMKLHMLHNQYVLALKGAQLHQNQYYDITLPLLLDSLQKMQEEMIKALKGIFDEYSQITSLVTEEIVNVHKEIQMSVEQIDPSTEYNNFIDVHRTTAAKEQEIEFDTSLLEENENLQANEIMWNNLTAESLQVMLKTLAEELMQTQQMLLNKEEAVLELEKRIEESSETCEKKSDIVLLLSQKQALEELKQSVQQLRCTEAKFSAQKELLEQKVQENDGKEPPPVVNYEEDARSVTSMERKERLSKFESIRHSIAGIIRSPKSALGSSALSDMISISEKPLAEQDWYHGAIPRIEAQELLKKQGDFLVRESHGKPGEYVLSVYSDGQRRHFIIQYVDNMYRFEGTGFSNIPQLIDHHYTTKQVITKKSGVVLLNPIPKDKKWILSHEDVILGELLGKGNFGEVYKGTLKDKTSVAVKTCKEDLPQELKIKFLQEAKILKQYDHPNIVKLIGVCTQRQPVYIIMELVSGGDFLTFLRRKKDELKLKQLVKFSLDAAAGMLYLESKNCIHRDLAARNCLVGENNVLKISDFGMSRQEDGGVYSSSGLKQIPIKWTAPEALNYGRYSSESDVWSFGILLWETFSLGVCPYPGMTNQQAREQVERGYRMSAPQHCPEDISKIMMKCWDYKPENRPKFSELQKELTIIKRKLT

[6] = molecular target: Ephrin type-A receptor 2 (Homo sapiens, UniProt P29317); format: functional;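 also: EPHA2 tested as one member of a kinome-wide kinase panel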
Sequence of Ephrin type-A receptor 2 (P29317 whole entry): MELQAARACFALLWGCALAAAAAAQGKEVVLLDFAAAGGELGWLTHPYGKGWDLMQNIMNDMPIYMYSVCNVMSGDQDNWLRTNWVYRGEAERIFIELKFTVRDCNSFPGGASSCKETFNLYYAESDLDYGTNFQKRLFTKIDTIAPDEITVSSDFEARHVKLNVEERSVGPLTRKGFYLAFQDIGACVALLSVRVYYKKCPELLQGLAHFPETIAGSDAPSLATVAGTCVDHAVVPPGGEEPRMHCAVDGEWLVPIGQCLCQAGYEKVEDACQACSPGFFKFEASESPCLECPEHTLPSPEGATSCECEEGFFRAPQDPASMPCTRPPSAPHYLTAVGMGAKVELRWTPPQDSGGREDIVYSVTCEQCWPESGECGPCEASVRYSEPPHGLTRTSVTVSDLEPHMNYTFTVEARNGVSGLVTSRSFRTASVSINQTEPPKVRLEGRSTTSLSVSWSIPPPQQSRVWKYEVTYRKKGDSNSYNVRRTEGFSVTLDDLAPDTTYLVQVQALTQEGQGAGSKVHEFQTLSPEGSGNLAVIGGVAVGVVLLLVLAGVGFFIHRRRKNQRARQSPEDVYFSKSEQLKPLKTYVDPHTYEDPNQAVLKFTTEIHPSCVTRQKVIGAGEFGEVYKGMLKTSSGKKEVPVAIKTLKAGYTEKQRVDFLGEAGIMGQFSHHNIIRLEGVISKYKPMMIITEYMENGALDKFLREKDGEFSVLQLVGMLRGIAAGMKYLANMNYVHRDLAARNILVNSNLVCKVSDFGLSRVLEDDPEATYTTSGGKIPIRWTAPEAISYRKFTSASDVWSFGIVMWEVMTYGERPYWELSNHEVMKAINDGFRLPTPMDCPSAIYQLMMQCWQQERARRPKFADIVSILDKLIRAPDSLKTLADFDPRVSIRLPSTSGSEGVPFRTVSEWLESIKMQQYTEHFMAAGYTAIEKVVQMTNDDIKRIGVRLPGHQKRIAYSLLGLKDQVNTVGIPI

[7] = molecular target: Vascular endothelial growth factor receptor 3 (Homo sapiens, UniProt P35916); format: functional;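 also: value from a kinome-wide profiling panel, with FLT4 as the panel member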
Sequence of Vascular endothelial growth factor receptor 3 (P35916 whole entry): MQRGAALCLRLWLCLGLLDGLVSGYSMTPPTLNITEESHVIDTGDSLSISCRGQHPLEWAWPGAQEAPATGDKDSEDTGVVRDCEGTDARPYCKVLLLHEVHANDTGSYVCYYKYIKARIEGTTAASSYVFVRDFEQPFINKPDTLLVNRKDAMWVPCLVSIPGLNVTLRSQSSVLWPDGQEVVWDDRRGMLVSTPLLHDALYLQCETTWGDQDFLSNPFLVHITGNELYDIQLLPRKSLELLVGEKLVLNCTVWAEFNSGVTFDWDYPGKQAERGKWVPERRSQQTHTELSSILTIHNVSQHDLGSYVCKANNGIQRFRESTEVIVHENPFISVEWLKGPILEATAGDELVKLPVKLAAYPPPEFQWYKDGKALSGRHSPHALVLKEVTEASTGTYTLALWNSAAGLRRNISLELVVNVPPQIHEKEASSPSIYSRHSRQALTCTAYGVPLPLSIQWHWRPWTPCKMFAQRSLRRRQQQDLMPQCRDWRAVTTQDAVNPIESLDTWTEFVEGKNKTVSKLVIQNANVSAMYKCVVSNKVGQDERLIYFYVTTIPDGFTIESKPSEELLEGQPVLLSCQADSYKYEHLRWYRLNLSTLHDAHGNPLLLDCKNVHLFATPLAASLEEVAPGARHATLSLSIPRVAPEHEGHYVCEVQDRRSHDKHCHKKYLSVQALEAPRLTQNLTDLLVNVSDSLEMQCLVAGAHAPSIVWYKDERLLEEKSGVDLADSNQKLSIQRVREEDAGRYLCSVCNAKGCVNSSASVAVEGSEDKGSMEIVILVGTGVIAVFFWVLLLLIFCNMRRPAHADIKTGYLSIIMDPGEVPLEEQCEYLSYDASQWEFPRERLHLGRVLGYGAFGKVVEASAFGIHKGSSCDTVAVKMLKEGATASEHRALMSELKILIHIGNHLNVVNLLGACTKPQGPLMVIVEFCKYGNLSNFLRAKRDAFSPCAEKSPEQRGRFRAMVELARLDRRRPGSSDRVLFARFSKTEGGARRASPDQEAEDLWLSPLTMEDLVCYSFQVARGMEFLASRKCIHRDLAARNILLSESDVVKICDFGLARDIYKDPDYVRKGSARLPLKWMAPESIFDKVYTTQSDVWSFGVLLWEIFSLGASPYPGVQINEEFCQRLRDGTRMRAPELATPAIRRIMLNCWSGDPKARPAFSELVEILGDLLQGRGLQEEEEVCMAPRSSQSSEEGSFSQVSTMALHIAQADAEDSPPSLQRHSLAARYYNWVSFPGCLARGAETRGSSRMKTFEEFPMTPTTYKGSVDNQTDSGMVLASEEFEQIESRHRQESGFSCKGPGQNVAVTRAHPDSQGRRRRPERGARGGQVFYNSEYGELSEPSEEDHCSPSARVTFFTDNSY

[8] = loss of viability in HepG2 cells – cell-based, CellTiter-Glo, cherry-picked, cytotoxicity control for Shn3 inhibitor project, dose response (AID 624134); format: functional
[9] = molecular target: Dual specificity protein phosphatase 3 (Homo sapiens, UniProt P51452); assay: VHR1 phosphatase inhibitors, primary screen, biochemical, absorbance, uHTS (AID 1654)
Sequence of Dual specificity protein phosphatase 3 (P51452 whole entry): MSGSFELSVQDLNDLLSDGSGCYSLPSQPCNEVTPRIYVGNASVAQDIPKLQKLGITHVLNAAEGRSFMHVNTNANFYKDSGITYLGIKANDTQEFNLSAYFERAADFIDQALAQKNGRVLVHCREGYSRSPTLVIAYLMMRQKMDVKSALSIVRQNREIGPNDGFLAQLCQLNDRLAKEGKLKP

[10] = NIH-3T3 fibroblast cytotoxicity, dose response, cytotoxicity control, cell-based, fluorescence, Alamar Blue, secondary assay (AID 2327); format: functional;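 also: NIH-3T3 mouse fibroblasts cultured with fluconazole at 8 µg/mL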
[11] = molecular target: T2, Protein RecA (Mycobacterium tuberculosis, UniProt P9WHJ3); assay: Fluorescence Cell-Free Homogeneous Dose Retest to Identify Inhibitors of RecA-Intein Splicing Activity. [Related pubchem assays (depositor defined):AID2097, AID2223, AID489010, AID492950]; format: functional
T2 sequence (P9WHJ3 whole entry): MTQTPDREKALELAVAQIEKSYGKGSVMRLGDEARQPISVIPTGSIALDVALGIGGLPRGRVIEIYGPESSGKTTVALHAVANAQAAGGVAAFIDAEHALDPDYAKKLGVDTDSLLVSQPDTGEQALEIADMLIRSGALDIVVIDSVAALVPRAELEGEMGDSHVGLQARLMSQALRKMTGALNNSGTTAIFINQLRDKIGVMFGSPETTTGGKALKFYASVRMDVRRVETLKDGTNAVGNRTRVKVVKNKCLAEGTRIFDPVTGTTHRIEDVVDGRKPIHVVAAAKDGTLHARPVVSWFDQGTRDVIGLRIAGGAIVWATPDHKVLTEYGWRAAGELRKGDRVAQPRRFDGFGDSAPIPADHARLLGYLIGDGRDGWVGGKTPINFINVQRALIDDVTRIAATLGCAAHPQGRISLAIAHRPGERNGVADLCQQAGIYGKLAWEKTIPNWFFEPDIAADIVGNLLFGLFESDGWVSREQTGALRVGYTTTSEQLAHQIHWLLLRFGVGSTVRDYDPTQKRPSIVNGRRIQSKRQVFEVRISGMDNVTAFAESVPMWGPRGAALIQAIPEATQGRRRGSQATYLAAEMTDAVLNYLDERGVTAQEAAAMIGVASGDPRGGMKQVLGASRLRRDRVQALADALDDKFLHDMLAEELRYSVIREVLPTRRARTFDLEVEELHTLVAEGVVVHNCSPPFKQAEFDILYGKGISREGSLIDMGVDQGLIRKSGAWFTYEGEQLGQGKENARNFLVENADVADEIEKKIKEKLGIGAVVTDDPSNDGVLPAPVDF

[12] = molecular target: T2, Protein RecA; assay: GFP-RecA MOA-DTT Measured in Biochemical System Using Plate Reader - 2047-05_Inhibitor_Dose_DryPowder_Activity. [Related pubchem assays (depositor defined):AID2223]; set-up: species or system Mycobacterium tuberculosis H37Rv
[13] = Intein inhibitors as potential Tuberculosis drugs, a cytotoxicity screen. [Related pubchem assays (depositor defined):AID2221, AID2223, AID434968, AID435010, AID449749, AID449750, AID489010]; format: functional
[14] = molecular target: T3, Cysteine protease ATG4B (Homo sapiens, UniProt Q9Y4P1); format: functional;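 also: Fluorescence-based dose-response confirmation assay measuring inhibition of ATG4B activity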
T3 sequence (Q9Y4P1 whole entry): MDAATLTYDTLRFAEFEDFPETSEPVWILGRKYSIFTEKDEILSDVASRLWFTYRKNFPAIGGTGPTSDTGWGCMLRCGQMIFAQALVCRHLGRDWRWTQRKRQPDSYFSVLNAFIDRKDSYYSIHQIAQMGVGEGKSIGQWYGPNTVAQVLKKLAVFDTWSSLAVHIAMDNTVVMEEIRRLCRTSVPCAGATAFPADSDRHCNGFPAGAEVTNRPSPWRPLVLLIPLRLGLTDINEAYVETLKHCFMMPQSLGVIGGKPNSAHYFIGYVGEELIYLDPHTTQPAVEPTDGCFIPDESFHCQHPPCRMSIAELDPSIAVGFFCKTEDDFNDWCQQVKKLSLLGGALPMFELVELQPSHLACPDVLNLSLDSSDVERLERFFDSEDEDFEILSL

[15] = reduced cellular PGC1a acetyl-lysine signal – cell-based, cherry-picked samples, dose response (AID 720514); format: functional;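 also: potency may reflect raised or lowered acetylation signal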
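For CC50 in this document: cells exposed to compound for 72 hours before luminescence readout.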

## CC(C)c1ccc(-c2nnn(CCC(=O)O)n2)cc1
[1]
  EC50: > 50000 nM (not active)
[2]
  IC50: 7270 nM (active)

## COc1cc2c(cc1Nc1nc(Nc3cccc(F)c3C(N)=O)c3cc[nH]c3n1)N(C(=O)CN(C)C)CC2
[3]
  Ki: > 1260 nM (inactive)
[4]
  Ki: > 3160 nM (inactive)
[5]
  Ki: 1.58 nM (active)
[6]
  Ki: > 3160 nM (inactive)
[7]
  Ki: > 6310 nM (inactive)

## CCn1nc(/C=C/c2ccccc2)nc2c(=O)n(C)c(=O)nc1-2
[8]
  AC50: 12000 nM (active)
[9]
  IC50: 2240 nM (active)
[10]
  EC50: 952 nM (inconclusive)
[11]
  EC50: 36.8 nM (active)
[12]
  AC50: 65 nM (active)
[13]
  CC50: > 40000 nM (active)
[14]
  IC50: 653 nM (active)
[15]
  AC50: 2870 nM (active)
